# Reference: patent publication US6770671B2, “7,8-dihydro-xanthenone-8-carboxylic acid derivative and novel microbe producing the same” (Korea Research Institute of Bioscience and Biotechnology, priority 2000, dated 2004)
# Where “and” joins values, the source holds several entries; their conditions need not be identical. Identical values can stand only once. Entries after “also recorded” stand apart in the source; their conditions may differ.
# Assays:
# [1] = test system: bFGF-induced proliferation of HUVEC; assay: bFGF-induced HUVEC proliferation (acid phosphatase assay); type: cell-based, human; conditions: bFGF 20 ng/ml; 0.004-10 μg/ml compound; 48 hours; FIG. 1
# Description: (§1) To determine the inhibitory effect of the compound represented by the chemical formula 1 on angiogenesis, endothelial cells were used as a model on the basis that they are migrated and differentiated into capillary tubes under a specific culture condition, that is, in the presence of angiogenic factors such as VEGF, bFGF, etc. Stimulation by angiogenic factors triggers complex, intracellular reactions of endothelial cells and causes them to undergo cell proliferation and differentiation, resulting in the induction of angiogenesis. […] In gelatin-coated 96-well plates, HUVEC cultured in an M199 medium (20% FBS, 3 ng/ml bFGF, 100 μg/ml heparin) was plated at a density of 10^4 cells/well and cultured for 24 hours under the condition of serum starvation. Thereafter, VEGF and bFGF were independently added at a concentration of 20 ng/ml per well and ACRL-B4 was also added at concentrations of 0.004, 0.02, 0.08, 0.4, 2 and 10 μg/ml while control wells were treated with angiogenic factors only. After 48 hours incubation, the inhibition of HUVEC proliferation by the ACRL-B4 was quantitatively analyzed by an acid phosphatase assay.
# [2] = Acute toxicity test on rat upon oral administration; conditions: in vivo, 500 mg/kg
# Method: Using specific pathogen-free (SPF) SD rats, which were six weeks old, the 7,8-dihydro-xanthenone-8-carboxylic acid derivative of the present invention were tested for acute toxicity.
# Suspensions of the compound of the present invention in 0.5% methyl cellulose were orally administered once at a dose of 500 mg/kg/15 ml to the rats, which were grouped in threes. […] An autopsy was made of the rats with the naked eye to observe whether their abdominal and thoracic organs were damaged.
# B16-BL6 melanoma cells = assay: In vivo tumor growth, B16-BL6 melanoma in C57BL/6 mice; parameters: species or system mouse; conditions: for inhibition of tumor growth: B16-BL6 in C57BL/6 mice
# Method: (§2) Onto the back of C57BL/6 mice 4-5 weeks old, 10^6 B16-BL6 melanoma cells were subcutaneously transplanted. When the tumors were grown to sizes of 100-250 mm^3, the mice were randomly mixed and divided into 4 groups, each of 6 members, to which drugs were then administered. For Group 1, only a solvent was used, while the novel compound ACRL-B4 represented by the chemical formula 1 was intraperitoneally injected every other day at doses of 30 mg/kg, 15 mg/kg and 5 mg/kg to Groups 2 to 4, respectively, with monitoring of tumor sizes and body weights. The test compound was dissolved in a solvent mixture of 85% physiological saline, 5% DMSO (dimethylsulfoxide) and 10% cremophore.
# For the calculation of cancer sizes, the mathematical formula 1 was used, and since the transplantation of cancer cells, changes in tumor size had been measured and the results are depicted in FIG. 3.
# [3] = test system: Lewis lung carcinoma 3LL cells; assay: In vivo tumor growth, 3LL Lewis lung carcinoma in C57BL/6 mice; parameters: species or system mouse; conditions: for inhibition of tumor growth: 3LL in C57BL/6 mice
# Method: as §2, with “Into” for “Onto”, “backs” for “back”, “3LL cancer” for “B16-BL6 melanoma”, “cells (Korean Collection for Type Culture at Korea Research Institute of Bioscience and Biotechnology)” for “cells”, “were” for “were then”, “under the” for “with”
# Tumor sizes were calculated according to the following mathematical formula 1, and since the transplantation of cancer cells, changes in tumor size had been measured and the results are depicted in FIG. 2. [formula]
# [4] = test system: angiogenesis in chorioallantoic membrane; assay: Chorioallantoic membrane (CAM) assay using fertilized eggs; type: in vivo; conditions: for Inhibition ratio (%): percentage of positive eggs to total tested eggs
# Method: <4-2> Inhibitory Effect on in vivo Angiogenesis Chorioallantoic membrane assay using fertilized eggs was used to examine whether the novel compound ACRL-B4 of the present invention is effective to inhibit angiogenesis in vivo.
# After being grown at 37° C. for three days at a humidity of 90% in an incubator, fertilized eggs were deprived of 2 ml of albumin through a 18-gauge subcutaneous injection needle. On the fourth day, a circular window was cut into each of the eggs and the outer layers of their chorioallantoic membranes were removed. Separately, pieces of thermanox coverslip were coated with the ACRL-B4 compound dissolved in ethanol at the concentration of 1 and 5 μg/coverslip and the ethanol was evaporated. On day 4.5, the thermanox coverslip were placed on the embryonic chorioallantoic membranes of the embryos. After 2 days incubation at 37° C., 1-2 ml of 10% fat emulsion was injected into chorioallantois and observed blood vessel formation during an embryogenesis or development procedure under a microscope. As a positive control, 1 μg/egg of retinoic acid was used and a negative control was non-treated coverslip.
# [5] = test system: VEGF-induced proliferation of HUVEC; assay: VEGF-induced HUVEC proliferation (acid phosphatase assay); type: cell-based, human; conditions: VEGF 20 ng/ml; 0.004-10 μg/ml compound; 48 hours; FIG. 1
# Description: as §1
# [6] = test system: smooth muscle myosin light chain kinase; conditions: Nakanishi et al., J. Antibiotics 1993; cited from earlier work
# protein kinase C = conditions: Nakanishi et al., J. Antibiotics 1993; cited from earlier work
structure (smiles),measurement,setting,value
"COC(=O)C1c2c(oc3cc(CO)cc(O)c3c2=O)C=CC1O (stereo not shown) [ACRL-B4, 7,8-dihydro-1,7-dihydroxy-3-hydroxymethyl-xanthenone-8-carboxylic acid methyl ester]",inhibition of bFGF-induced HUVEC proliferation,[1],inhibit the HUVEC proliferation induced by angiogenic factors
same,LD50,"[2]; oral, single dose, SD rats, read-out: lethal dose (LD50)",≥ 500 mg/kg
same,death and clinical symptoms,[2]; po,Neither sudden death nor noticeable clinical symptoms were detected
same,"toxicity signs (weight change, serological tests, serobiochemical tests, corpse examination)",[2]; po,no toxicity signs were observed
same,inhibition of tumor growth,B16-BL6 melanoma cells; 5 mg/kg i.p. every other day,40%
same,inhibition of tumor growth,B16-BL6 melanoma cells; 15 mg/kg i.p. every other day,50%
same,inhibition of tumor growth,B16-BL6 melanoma cells; 30 mg/kg i.p. every other day,65%
same,side effects / body weight,"B16-BL6 melanoma cells; 5-30 mg/kg i.p. every other day, B16-BL6-bearing C57BL/6 mice",did not exhibit toxic effects such as weight loss; also recorded: without causing side effects such as loss of body weight
same,inhibition of tumor growth,[3]; 5 mg/kg i.p. every other day,40%
same,inhibition of tumor growth,[3]; 15 mg/kg i.p. every other day,60%
same,inhibition of tumor growth,[3]; 30 mg/kg i.p. every other day,80%
same,side effects / body weight,"[3]; 5-30 mg/kg i.p. every other day, 3LL-bearing C57BL/6 mice",did not exhibit toxic effects such as weight loss; also recorded: without causing side effects such as loss of body weight
same,No. of egg showing anti-angiogenesis,[4]; 1 μg/egg,10
same,Inhibition ratio (%),[4]; 1 μg/egg,71% and 71.4%
same,No. of egg showing anti-angiogenesis,[4]; 5 μg/egg,9
same,Inhibition ratio (%),[4]; 5 μg/egg,90%
same,inhibition of VEGF-induced HUVEC proliferation,[5],"specifically inhibit the VEGF-induced proliferation of HUVEC; also recorded: potent inhibitory activity against the proliferation of HUVEC; also recorded: inhibit the HUVEC proliferation induced by angiogenic factors, especially VEGF"
"CC1=C(/C=C/C(C)=C/C=C/C(C)=C/C(=O)O)C(C)(C)CCC1 [Positive control, retinoic acid, reference compound]",No. of egg showing anti-angiogenesis,[4]; 1 μg/egg,6
same,Inhibition ratio (%),[4]; 1 μg/egg,75%
COC(=O)c1c(O)ccc2oc3cc(CO)cc(O)c3c(=O)c12 [sydowinin B],inhibition of smooth muscle myosin light chain kinase,[6],inhibitor of smooth muscle myosin light chain kinase
COC(=O)C12OC1C=Cc1oc3cc(CO)cc(O)c3c(=O)c12 (stereo not shown) [MS-347a],inhibition of smooth muscle myosin light chain kinase,[6],inhibitory activity against smooth muscle myosin light chain kinase
same,inhibition of protein kinase C,protein kinase C,inhibitory activity
